Assays:
Format in all cases: in vivo, human
[1] = Sensory evaluation, summary of Table 3; details: added to an extract of a crude drug having a bitter taste
[2] = Sensory evaluation, summary of Table 2; details: added to an amino acid having a bitter taste
[3] = Sensory evaluation, summary of Table 1; details: added to a food or beverage having a bitter taste; without deteriorating the influence of the food or beverage itself
Source text: The beer (without addition of isobutyl angelate) was tasted by seven panelists (one twenty-something male, one thirty-something male, one forty-something male, one fifty-something male, one sixty-something male, and one twenty-something female and one thirty-something female). Subsequently, the seven panelists rinsed their mouths sufficiently, and then the beer having isobutyl angelate added thereto (with addition of isobutyl angelate) was tasted by the seven panelists. The panelists compared the isobutyl-angelate-free beer with the isobutyl-angelate-containing beer, and then determined whether or not the bitter taste in the isobutyl-angelate-containing beer was improved compared with the isobutyl-angelate-free beer in accordance with the following criteria. When the sum total of the scores determined by the seven panelists was 10 points or greater, it was determined that the bitter taste was improved.
1 point: although a bitter taste was sensed, the bitter taste was improved compared with the isobutyl-angelate-free beer; and
0 point: the bitter taste was not improved.

Compound: C/C=C(/C)C(=O)OCC(C)C [isobutyl angelate, Isobutyl angelate]
- Effect on bitter taste (summary of Table 3) [1]: a bitter taste derived from the crude drug is reduced
- Effect on bitter taste (summary of Table 2) [2]: the bitter taste derived from the amino acid is reduced
- Effect on bitter taste (summary of Table 1) [3]: the bitter taste is reduced

— patent US20180332878A1, “BITTER TASTE INHIBITOR” (NAGAOKA CO., LTD., priority 2017, published 2018)
